{"source": "patent US4734376A", "about": "“Process for the spectrophotometric measurement of lithium ion employing a chromogenic aza-12-crown-4- ether” (The President & Trustees of the Miami University, priority 1986, dated 1988)", "key": {"[1]": {"conditions": "cited from earlier work"}, "[2]": {"conditions": "μ = 0.1 (CH3)4NCl; reported by Nakamura et al; cited from earlier work"}, "[3]": {"conditions": "solvent 1,2-dichloroethane; pH not specified; reported by Nakamura et al; cited from earlier work"}, "[4]": {"test": "pH dependence of the structures", "format": "physicochemical"}, "[5]": {"test": "Determination of acid dissociation constants K1 and K2 by spectrophotometric titration", "format": "physicochemical", "conditions": "μ = 0.1 (CsCl), aqueous", "experimental": "A 50 ml aqueous solution containing the crown reagent of Example 5 (8.70×10^-5 M), hydrochloric acid (6×10^-4 M), and cesium chloride (0.1 M) was titrated with potassium hydroxide [0.1 M (below pH12), and 1 M (above pH12)], using a Metrohm automatic titrator, Dosimat E535 equipped with Potentiograph E536. The titration was interrupted in every 0.3-1.5 pH increase for the measurement of the absorption spectrum of the solution. A 3-4 ml portion of the solution was taken to a cuvette, the spectrum was recorded on a Hewlett-Packard 8450A spectrometer, and the solution was returned to the titration vessel using a pipet. The magnitude of the spectrum was corrected in order to adjust for dilution upon titration, and corrected results shown in FIG. 1.\n[formula] where K1 and K2 denote the acid dissociation constants, and KML a complex formation constant. By assuming no significant complex-formation, an absorbance A at any wavelength and the total concentration of the reagent [HL]t are written as\nA=εHLH.spsb.+ [HLH^+ ]+εHL\n[HL]+εLL.spsb.- [L^- ] (4)\n[HL]t =[HLH^ […] ]+[HL]+[L^- ] (5)\nwhere ε's are molar absorption coefficients. […]\nAt 342.8 nm and at pH ≥9.7, the absorbance deviating from the isosbestic point reflects the decay of HL and the growth of L-, so that these absorbance data can be used for the evaluation of -logK2 using Eq. (7). […]"}, "[6]": {"test": "Determination of extraction constant KML^ex, lithium ion", "format": "physicochemical", "conditions": "for -log K^ex LiL (extraction constant): solvent chloroform", "description": "(§1) Extraction equilibria are illustrated in FIG. 2 and in the following equation: [formula] where [M^+ ]t denotes a total alkali metal concentration. By assuming [L^-a ]>>[HLa ]+[MLa ], and [M^+ ]t >>[HL]t,\n(§2) [HL]t =[HLo ]+[MLo ]+[L^-a ] (12)\n(§3) Combining Eq. (8), (11), (12), and (13) gives [formula] where Δε=εMLo -εHLo, and E° denotes the E value in the absence of the metal ion in the system (E°=^ε HLo). […] The absorbance at the isosbestic point 401.4 nm shown in FIG. 1 gives εL.spsb.-.sbsb.a, so that the values of E and Eo, which are necessary for the plot, can be obtained experimentally.\n(§4) Determination of the partition equilibrium system was made in a manner similar to that employed in Example 7. The concentrations [HL]t, [M^+ ]t, and [OH^- ] were 5.35×10^-5 M, 4×10^-3 M-2 M (as chloride), and 10^-2 M-10^-1 M (as potassium hydroxide), respectively. Chloroform was used as the organic medium.\n(§5) In order to confirm the important assumption [La^- ]>>[HLa]+[MLa ], Eq.(11) (the left equation) was used for the evaluation of E instead of Eq.(15), which was derived from Eq.(11) under the assumption, and the obtained extraction constants compared with those obtained using Eq.(15). When Eq.(11) was applied, the species HLo and MLo in the organic layer were extracted into 0.1M hydrochloric acid as HLH^+, and the concentration of HLH+was determined spectrophotometrically and equated to [HLo ]+[MLo ]in Eq.(11). The extraction constants obtained in this way are […]"}, "[7]": {"test": "Determination of extraction constant KML^ex, sodium ion", "format": "physicochemical", "conditions": "for -log K^ex NaL (extraction constant): solvent chloroform", "description": "as §1, §2, §3, §4, §5"}, "[8]": {"test": "Effect of sodium ion on lithium determination", "format": "physicochemical", "conditions": "30-fold excess of sodium ions to lithium ions (Na+:Li+ weight ratio 30:1); versus Li+ alone; chloroform layer (Example 9: 400 nm)", "experimental": "The effect of sodium ion in the system was determined in a procedure similar to that used in Example 7. A series of six round-bottomed flasks containing 5 ml of chloroform, and 5 ml of an aqueous solution containing aza-12-crown-4 reagent (6.7×10^-4 M), lithium chloride (1×10^-4 =0.694 μg ml^-1), and a variable amount of sodium chloride [sodium chloride was added to five of these flasks in 0.001M increments whereby the [NaCl]aq =1×10^-3 M to 5×10^-3 M (23 μg ml^-1 through 115 μg ml^-1); one flask served as a sodium-free blank]. Absorbance of the organic layer was measured on a spectrophotomer. The results are illustrated in FIG. 4."}, "[9]": {"test": "Effect of organic solvents and bases on response to lithium and sodium ion", "format": "physicochemical", "experimental": "Three solvents--chloroform, 1,2-dichloroethane and methylene chloride--werecompared using potassium hydroxide and sodium hydroxide as bases. […] At 0.1M hydroxide, however, large differences were observed both between the cations and between the organic solvents. […] The best stability of the absorbance after the separation of organic layer from the equilibrium system was also observed for this system.\nVarious other organic solvents were tested as organic media with a 0.01 M potassium hydroxide."}, "[10]": {"conditions": "obtained using Eq. (11), organic species back-extracted into 0.1M hydrochloric acid, chloroform"}}, "note": "Entries after “also recorded” stand apart in the source; their conditions may differ. Where two headings read alike, the source gives them in different places."}
{"smiles": "C1COCCN2CCOCCN(CCO1)CCOCC2", "note": "[cryptand [2,1,1]]", "values": [{"measurement": "sensitivity to lithium ions", "setting": "[1]; cryptand itself, without ion pairing agent", "result": "not sensitive to lithium ions"}, {"measurement": "extraction of lithium ions compared with reagent of Nakamura et al", "setting": "[1]; with ion pairing agent resazurin", "result": "more selectively and more efficiently"}]}
{"smiles": "O=[N+]([O-])c1ccc(O)c(CN2CCOCCOCCOCCOCC2)c1", "note": "[aza-15-crown-5, N-(2-hydroxy-5-nitrobenzyl)-aza-15-crown-5]", "values": [{"measurement": "-log K1 (acid dissociation constant)", "setting": "[2]", "result": 5.79}, {"measurement": "-log K2 (acid dissociation constant)", "setting": "[2]", "result": 9.69}, {"measurement": "-log K^ex LiL (extraction constant)", "setting": "[1]; solvent 1,2-dichloroethane, pH not specified, reported by Nakamura et al", "result": 9.15}, {"measurement": "-log K^ex NaL (extraction constant)", "setting": "[3]", "result": 9.76}]}
{"smiles": "O=[N+]([O-])c1ccc(O)c(CN2CCOCCOCCOCC2)c1", "note": "[ii, 1-(2-oxy-5-nitrobenzyl)1-aza-4,7,10-trioxacyclododecane]", "values": [{"measurement": "pH at which the structure predominates", "setting": "[4]", "result": "greater than 11"}]}
{"smiles": "O=[N+]([O-])c1ccc(O)c(CN2CCOCCOCCOCC2)c1", "note": "[i, 1-(2-hydroxy-5-nitrobenzyl)-1-hydro-1-aza-4,7,10-trioxacyclododecane]", "values": [{"measurement": "pH at which the structure predominates", "setting": "[4]", "result": "less than 5"}]}
{"smiles": "O=[N+]([O-])c1ccc(O)c(CN2CCOCCOCCOCC2)c1", "note": "[aza-12-crown-4, 1-(2-oxy-5-nitrobenzyl)-1-hydro-1-aza-4,7,10-trioxacyclododecane]", "values": [{"measurement": "-log K1 (acid dissociation constant)", "setting": "[5]", "result": 5.77}, {"measurement": "-log K2 (acid dissociation constant; pK2)", "setting": "[5]", "result": 10.31}, {"measurement": "-log K^ex LiL (extraction constant)", "setting": "[6]; 0.05M KOH", "result": 10.23}, {"measurement": "-log K^ex LiL (extraction constant)", "setting": "[6]; 0.1M KOH", "result": 10.18}, {"measurement": "dependence of -log KLiL^ex on hydroxide concentration", "setting": "[6]; 10^-2 M-10^-1 M KOH, chloroform", "result": "not significantly dependent on the hydroxide concentration employed"}, {"measurement": "ratio of KLiL^ex to KNaL^ex (selectivity)", "setting": "[6]; compared with aza-15-crown-5", "result": "much greater than the aza-15-crown5"}, {"measurement": "KLiL^ex smaller than that of prior art aza-15-crown-5, factor", "setting": "[6]; compared with prior art aza-15-crown-5", "result": "smaller by a factor of ten"}, {"measurement": "-log KLiL^ex (extraction constant)", "setting": "[6]; [10]", "result": 10.25}, {"measurement": "-log K^ex NaL (extraction constant)", "setting": "[7]; 0.05M KOH", "result": 12.49}, {"measurement": "-log K^ex NaL (extraction constant)", "setting": "[7]; 0.1M KOH", "result": 12.50}, {"measurement": "-log KNaL^ex (extraction constant)", "setting": "[7]; [10]", "result": 12.47}, {"measurement": "increase in absorbance in presence of sodium ion", "setting": "[8]", "result": 8, "unit": "%"}, {"measurement": "sensitivity and interference differences between bases and solvents", "setting": "[9]; 0.01 M hydroxide, chloroform, 1,2-dichloroethane, methylene chloride, KOH and NaOH", "result": "no significant sensitivity and interference differences were observed"}, {"measurement": "sensitivity and sodium interference, bases and solvents", "setting": "[9]; 0.1M hydroxide, chloroform, 1,2-dichloroethane, methylene chloride, KOH and NaOH", "result": "Potassium hydroxide gave higher sensitivity in both chloroform and methylene chloride than sodium hydroxide, but not in 1,2-dichloroethane; also recorded: Methylene chloride exhibited the highest sensitivity when used with potassium hydroxide, but was subject to increased interference by sodium ions; also recorded: The combination of methylene chloride and sodium hydroxide allowed most of the reagent to pass into the organic layer; also recorded: optimum combination of high sensitivity, low interference, and low blank absorption was achieved by a system employing 0.1M potassium hydroxide and chloroform"}, {"measurement": "response / extraction by organic solvent", "setting": "[9]; organic solvents tested with 0.01 M potassium hydroxide", "result": "no response of the reagent to lithium and sodium ion was observed; also recorded: Methyisobutyl-ketone showed only slight extraction of the metal complex; also recorded: No extraction occurred into benzene, carbon tetrachloride, chlorobenzene, and trichlorethylene"}, {"measurement": "response with triethylamine as base", "setting": "[9]; triethylamine 1M in CHCl3, compared with KOH", "result": "the response to lithium ions was smaller and the response to sodium ions was larger"}, {"measurement": "response with triethylamine plus sodium hydroxide", "setting": "[9]; triethylamine 1M in CHCl3 and sodium hydroxide 0.1M", "result": "intermediate response to lithium ions, and the response was not stable"}, {"measurement": "pH at which the structure predominates", "setting": "[4]; listed as iii", "result": "approximately 8"}]}
